Experimental findings from patent US11925629B2, “Heterocyclic inhibitors of ERK1 and ERK2 and their use in the treatment of cancer” (Asana Biosciences, LLC, priority 2015, dated 2024) are described below.

The term IC50 denotes the concentration at which inhibition is half-maximal.

What all share (assay type): cell-based, human
Assay [1] deals with HCT116 (colorectal carcinoma, K Ras G13D) cells. The assay can be described thus: Cell proliferation (Alamar Blue) assay, HCT116. As to conditions: Homo sapiens, HCT-116, HCT116 cells. Put shortly: (§1)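 5000 cells/well, 16-24 h attach; cpd 0.0005-10 uM (3-fold dilns) x 72 h, 37° C./5% CO2; Alamar Blue 1× 1-3 h; fluor 540/590 nm; IC50, variable-slope sigmoid.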
(Alamar Blue is a resazurin reagent that responds to reducing activity.)

Assay [2] relates to phosphorylation of RSK1(S380) (the downstream target of ERK1/2). The assay can be described thus: Phospho-RSK1(S380) ELISA assay in HT-29 cells. To be noted: Homo sapiens, HT-29, HT29 cells, read-out: Mechanistic Cell Assay RSK1 Phos HT29 IC50. The method, boiled down: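 IC50 values derive from a variable-slope sigmoidal fit of sandwich-ELISA signal (450 nm) for RSK1 Ser380 phosphorylation. The cells were B-RafV600E HT-29 colorectal line, exposed to serially diluted compound for 2 h after overnight seeding, then lysed at 4° C.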
Background: In an ELISA, binding on a coated surface is turned into a signal by an enzyme label.

The test system of assay [3] is HT-29 (colorectal carcinoma, B-RafV600E) cells. The assay can be described thus: Cell proliferation (Alamar Blue) assay, HT-29. To be noted: Homo sapiens, HT-29, HT29 cells. The method, boiled down: as §1

Molecules are shown by their SMILES. Like-named read-outs stand apart in the source and are kept apart here.

For `Cc1cnc(NC2CCOCC2)nc1-n1cnc(C(=O)N[C@@H](CN)c2cc(F)cc(Cl)c2)c1` [Example 276, (R)-N-(2-amino-1-(3-chloro-5-fluorophenyl)ethyl)-1-(5-methyl-2-((tetrahydro-2H-pyran-4-yl)amino)pyrimidin-4-yl)-1H-imidazole-4-carboxamide], the values for the IC50 in assay [1], in assay [2] (phospho-RSK1(S380)) and in assay [3] were 0.5 to 2.5 µM, 0.1 to 0.25 µM and 0.25 to 0.5 µM, respectively.

On to `CC[C@H](CO)Nc1ncc(C)c(-n2ccc(C(=O)NC(CO)c3cccc(Cl)c3)c2)n1` (stereo partly drawn) [Example 167, N-(1-(3-chloro-phenyl)-2-hydroxy-ethyl)-1-(2-(((R)-1-hydroxy-butan-2-yl)amino)-5-methyl-pyrimidin-4-yl)-1H-pyrrole-3-carboxamide], for which the IC50 is above 2.5 µM in assay [1], 0.5 to 2.5 µM in assay [2] (phospho-RSK1(S380)) and 0.5 to 2.5 µM in assay [3].

As for `Cc1cnc(NC2CCOCC2)nc1-n1cnc(C(=O)N[C@H](CN(C)C)c2cccc(Cl)c2)c1` [Example 320, (S)-N-(1-(3-chlorophenyl)-2-(dimethylamino)ethyl)-1-(5-methyl-2-((tetrahydro-2H-pyran-4-yl)amino)pyrimidin-4-yl)-1H-imidazole-4-carboxamide], the IC50 in assay [1] fell in the range of 0.5 to 2.5 µM; in assay [2], 0.25 to 0.5 µM; in assay [3], 0.25 to 0.5 µM.

Take `CC[C@@H](CO)Nc1ncc(C)c(-n2ccc(C(=O)N[C@H](CO)c3ccc(F)c(Cl)c3)c2)n1` [Example 133, N-((S)-1-(3-chloro-4-fluorophenyl)-2-hydroxy-ethyl)-1-(2-(((S)-1-hydroxy-butan-2-yl)amino)-5-methyl-pyrimidin-4-yl)-1H-pyrrole-3-carboxamide]: the IC50 was in the range of 0.5 to 2.5 µM in assay [1], 0.25 to 0.5 µM in assay [2] (phospho-RSK1(S380)) and 0.25 to 0.5 µM in assay [3].

Regarding `Cc1cnc(Nc2ccc3c(c2)CC(=O)N3)nc1-n1ccc(C(=O)NC(CO)c2cccc(Cl)c2)c1` (stereo not drawn) [Example 198, N-(1-(3-chlorophenyl)-2-hydroxyethyl)-1-(5-methyl-2-((2-oxoindolin-5-yl)amino)pyrimidin-4-yl)-1H-pyrrole-3-carboxamide], the IC50 in assay [1], in assay [2] (phospho-RSK1(S380)) and in assay [3] was 0.5 to 2.5 µM each time.

Regarding `Cc1cnc(NC2CCOC2)cc1-n1ccc(C(=O)NC(CO)c2cccc(Cl)c2)c1` (stereo not drawn) [Example 165, N-(1-(3-chloro-phenyl)-2-hydroxy-ethyl)-1-(5-methyl-2-((tetra-hydrofuran-3-yl)amino)pyridin-4-yl)-1H-pyrrole-3-carboxamide], the values for the IC50 in assay [1], in assay [2] (phospho-RSK1(S380)) and in assay [3] were above 2.5 µM, 0.5 to 2.5 µM and above 2.5 µM, respectively.

In the case of `COc1cnc(Nc2ccc(F)cc2Cl)nc1-n1ccc(C(=O)NC(CO)c2ccccc2)c1` (stereo not drawn) [Example 129, 1-(2-((2-chloro-4-fluorophenyl)amino)-5-methoxy-pyrimidin-4-yl)-N-(2-hydroxy-1-phenylethyl)-1H-pyrrole-3-carboxamide], the figures for the IC50 in assay [1], in assay [2] (phospho-RSK1(S380)) and in assay [3] were above 2.5 µM, 0.5 to 2.5 µM and above 2.5 µM, respectively.

Consider `Cc1cn(-c2ccnc(Nc3ccc(F)cc3)n2)cc1C(=O)NC(CO)c1cccc(Cl)c1` (stereo not drawn) [Example 110, N-(1-(3-chloro-phenyl)-2-hydroxy-ethyl)-1-(2-((4-fluoro-phenyl)-amino)pyrimidin-4-yl)-4-methyl-1H-pyrrole-3-carboxamide], for which the IC50 in assay [1], in assay [2] (phospho-RSK1(S380)) and in assay [3] was above 2.5 µM each time.

In the case of `Cc1cnc(Nc2ccc3c(c2)CCO3)nc1-n1ccc(C(=O)NC(CO)c2ccccc2)c1` (stereo not drawn) [Example 138, 1-(2-((2,3-dihydro-benzofuran-5-yl)amino)-5-methyl-pyrimidin-4-yl)-N-(2-hydroxy-1-phenylethyl)-1H-pyrrole-3-carboxamide], the IC50 in assay [1], in assay [2] (phospho-RSK1(S380)) and in assay [3] was 0.1 to 0.25 µM in each case.

Regarding `CNCCNC[C@@H](NC(=O)c1cn(-c2nc(NC3CCOCC3)ncc2C)cn1)c1cccc(Cl)c1` [Example 345], the IC50 in assay [1] was 0.5 to 2.5 µM; in assay [2], above 2.5 µM; in assay [3], 0.5 to 2.5 µM.
